# Reference: ChEMBL document CHEMBL3044586, “Design, synthesis, and anticonvulsant screening of some substituted piperazine and aniline derivatives of 5-phenyl-oxazolidin-2,4-diones and 5,5-diphenylimidazolidin-2,4 diones” (Med Chem Res, 2012)
# Activity calls are given as the source filed them. The calls are words filed in the database; no cut-off is given here.
# What was measured:
# Mus musculus [1] = test: Neurotoxicity against Mus musculus Swiss albino (mouse) assessed as inability to maintain equilibrium on rod at 30 to 300 mg/kg, ip measured after 0.5 hr by rotarod test; assay type: toxicity, organism-based; set-up: dose 30-300 mg/kg, route intraperitoneal; details: in vivo
# Mus musculus [2] = test: Anticonvulsant activity in Mus musculus Swiss albino (mouse) assessed as reduction in maximal electroshock-induced seizure at 30 to 300 mg/kg, ip measured after 4 hr; assay type: functional, organism-based
# Mus musculus [3] = test: Anticonvulsant activity in Mus musculus Swiss albino (mouse) assessed as reduction in maximal electroshock-induced seizure at 30 to 300 mg/kg, ip measured after 0.5 hr; assay type: functional, organism-based
# Mus musculus [4] = test: Neurotoxicity against Mus musculus Swiss albino (mouse) assessed as inability to maintain equilibrium on rod at 30 to 300 mg/kg, ip measured after 4 hr by rotarod test; assay type: toxicity, organism-based; set-up: dose 30-300 mg/kg, route intraperitoneal; details: in vivo
# Mus musculus [5] = test: Antagonist activity at 5HT2A receptor in ip dosed Mus musculus Swiss albino (mouse) assessed as inhibition of +/-DOI-induced head twitching administered 60 min prior to +/-DOI-challenge measured for 20 min; assay type: functional; details: read-out: ID50 (the source's name)
# Mus musculus [6] = test: Anticonvulsant activity in Mus musculus Swiss albino (mouse) assessed as reduction in maximal electroshock-induced seizure at 100 mg/kg, ip measured after 4 hr; assay type: functional, organism-based; set-up: dose 100 mg/kg
# Rattus norvegicus [7] = test: Neurotoxicity against Rattus norvegicus Wistar (rat) assessed as inability to maintain equilibrium on rod at 30 mg/kg, po measured after 4 hr by rotarod test; assay type: toxicity, organism-based; set-up: dose 30 mg/kg, route oral; details: in vivo
# Rattus norvegicus [8] = test: Neurotoxicity against Rattus norvegicus Wistar (rat) assessed as inability to maintain equilibrium on rod at 30 mg/kg, po measured after 0.5 hr by rotarod test; assay type: toxicity, organism-based; set-up: dose 30 mg/kg, route oral; details: in vivo
# Rattus norvegicus [9] = test: Anticonvulsant activity in Rattus norvegicus Wistar (rat) assessed as reduction in maximal electroshock-induced seizures at 30 mg/kg, po measured after 4 hr; assay type: functional, organism-based; set-up: dose 30 mg/kg
# Rattus norvegicus [10] = test: Anticonvulsant activity in Rattus norvegicus Wistar (rat) assessed as reduction in maximal electroshock-induced seizures at 30 mg/kg, po measured after 0.5 hr; assay type: functional, organism-based; set-up: dose 30 mg/kg
# Rattus norvegicus [11] = test: Presynaptic agonist activity at 5HT1A receptor in Rattus norvegicus Wistar (rat) assessed as change in rectal temperature at 20 mg/kg, ip measured after 120 min (reference value: 0.0 +/- 0.1 degC); assay type: functional, organism-based; set-up: dose 20 mg/kg
# Rattus norvegicus [12] = test: Presynaptic agonist activity at 5HT1A receptor in Rattus norvegicus Wistar (rat) assessed as change in rectal temperature at 10 mg/kg, ip measured after 120 min (reference value: 0.0 +/- 0.1 degC); assay type: functional, organism-based; set-up: dose 10 mg/kg
# Rattus norvegicus [13] = test: Presynaptic agonist activity at 5HT1A receptor in Rattus norvegicus Wistar (rat) assessed as change in rectal temperature at 20 mg/kg, ip measured after 90 min (reference value: -0.2 +/- 0.1 degC); assay type: functional, organism-based; set-up: dose 20 mg/kg
# Rattus norvegicus [14] = test: Presynaptic agonist activity at 5HT1A receptor in Rattus norvegicus Wistar (rat) assessed as change in rectal temperature at 10 mg/kg, ip measured after 90 min (reference value: -0.2 +/- 0.1 degC); assay type: functional, organism-based; set-up: dose 10 mg/kg
# Rattus norvegicus [15] = test: Presynaptic agonist activity at 5HT1A receptor in Rattus norvegicus Wistar (rat) assessed as change in rectal temperature at 20 mg/kg, ip measured after 60 min (reference value: 0.0 +/- 0.1 degC); assay type: functional, organism-based; set-up: dose 20 mg/kg
# Rattus norvegicus [16] = test: Presynaptic agonist activity at 5HT1A receptor in Rattus norvegicus Wistar (rat) assessed as change in rectal temperature at 10 mg/kg, ip measured after 60 min (reference value: 0.0 +/- 0.1 degC); assay type: functional, organism-based; set-up: dose 10 mg/kg
# Rattus norvegicus [17] = test: Presynaptic agonist activity at 5HT1A receptor in Rattus norvegicus Wistar (rat) assessed as change in rectal temperature at 20 mg/kg, ip measured after 30 min (reference value: -0.1 +/- 0.1 degC); assay type: functional, organism-based; set-up: dose 20 mg/kg
# Rattus norvegicus [18] = test: Presynaptic agonist activity at 5HT1A receptor in Rattus norvegicus Wistar (rat) assessed as change in rectal temperature at 10 mg/kg, ip measured after 30 min (reference value: -0.1 +/- 0.1 degC); assay type: functional, organism-based; set-up: dose 10 mg/kg
# Mus musculus [19] = test: Binding affinity to 5HT2A receptor in ip dosed Mus musculus Swiss albino (mouse) assessed as effect on +/-DOI-induced head twitching administered 60 min prior to +/-DOI-challenge measured for 20 min; assay type: functional, organism-based
# Rattus norvegicus [20] = test: Postsynaptic antagonist activity at 5HT1A receptor in Rattus norvegicus Wistar (rat) assessed as inhibition of 8-OH-DPAT-induced lower lip retraction at 10 to 20 mg/kg, ip administered 45 min prior to 8-OH-DPAT-challenge measured after 15 min; assay type: functional, organism-based
# Mus musculus [21] = test: Anticonvulsant activity in Mus musculus Swiss albino (mouse) assessed as reduction in maximal electroshock-induced seizure at 300 mg/kg, ip measured after 4 hr; assay type: functional, organism-based; set-up: dose 300 mg/kg
# Mus musculus [22] = test: Neurotoxicity against Mus musculus Swiss albino (mouse) assessed as inability to maintain equilibrium on rod at 300 mg/kg, ip measured after 4 hr by rotarod test; assay type: toxicity, organism-based; set-up: dose 300 mg/kg, route intraperitoneal; details: in vivo
# Mus musculus [23] = test: Anticonvulsant activity in Mus musculus Swiss albino (mouse) assessed as reduction in maximal electroshock-induced seizure at 30 mg/kg, ip measured after 4 hr; assay type: functional, organism-based; set-up: dose 30 mg/kg
# Rattus norvegicus [24] = test: Postsynaptic agonist activity at 5HT1A receptor in Rattus norvegicus Wistar (rat) assessed as increase in lower lip retraction at 10 to 20 mg/kg, ip measured after 15 min; assay type: functional, organism-based
# Mus musculus [25] = test: Anticonvulsant activity in Mus musculus Swiss albino (mouse) assessed as reduction in maximal electroshock-induced seizure at 100 mg/kg, ip measured after 0.5 hr; assay type: functional, organism-based; set-up: dose 100 mg/kg
compound,measurement,setting,value
O=C1NC(c2ccccc2)(c2ccccc2)C(=O)N1CCN1CCN(c2ccc(Cl)cc2)CC1,Activity,Mus musculus [1],Non-toxic
same,Activity,Mus musculus [2],inactive
same,Activity,Mus musculus [3],inactive
same,Activity,Mus musculus [4],Non-toxic
O=C1NC(c2ccccc2)(c2ccccc2)C(=O)N1CCN1CCN(c2ccccn2)CC1,Activity,Mus musculus [1],Non-toxic
same,Activity,Mus musculus [2],inactive
same,Activity,Mus musculus [3],inactive
same,Activity,Mus musculus [4],Non-toxic
O=C(c1ccc(F)cc1)C1CCN(CCn2c(=O)[nH]c3ccccc3c2=O)CC1 [KETANSERIN],ED50,Mus musculus [5],0.12 mg/kg
COc1ccc(NCCN2C(=O)OC(c3ccccc3)C2=O)cc1 (centres undefined),Activity,Mus musculus [1],Non-toxic
same,Activity,Mus musculus [6],Active
same,Activity,Mus musculus [3],inactive
same,Activity,Rattus norvegicus [7],Non-toxic
same,Activity,Rattus norvegicus [8],Non-toxic
same,Activity,Rattus norvegicus [9],inactive
same,Activity,Rattus norvegicus [10],inactive
same,Activity,Mus musculus [4],Non-toxic
same,deltaT,Rattus norvegicus [11],-1.3 °C
same,deltaT,Rattus norvegicus [12],-0.7 °C
same,deltaT,Rattus norvegicus [13],-1.5 °C
same,deltaT,Rattus norvegicus [14],-0.8 °C
same,deltaT,Rattus norvegicus [15],-1.5 °C
same,deltaT,Rattus norvegicus [16],-0.8 °C
same,deltaT,Rattus norvegicus [17],-1.1 °C
same,deltaT,Rattus norvegicus [18],-0.5 °C
same,Activity,Mus musculus [19],inactive
same,inhibition,Rattus norvegicus [20],Active
O=C1NC(c2ccccc2)(c2ccccc2)C(=O)N1CCNc1ccc(Cl)cc1,Activity,Mus musculus [1],Non-toxic
same,Activity,Mus musculus [2],inactive
same,Activity,Mus musculus [3],inactive
same,Activity,Mus musculus [4],Non-toxic
O=C1OC(c2ccccc2)C(=O)N1CCN1CCN(c2ccc(F)cc2)CC1 (centres undefined),Activity,Mus musculus [1],Non-toxic
same,Activity,Mus musculus [6],Active
same,Activity,Mus musculus [3],inactive
same,Activity,Rattus norvegicus [7],Non-toxic
same,Activity,Rattus norvegicus [8],Non-toxic
same,Activity,Rattus norvegicus [9],inactive
same,Activity,Rattus norvegicus [10],inactive
same,Activity,Mus musculus [4],Non-toxic
same,deltaT,Rattus norvegicus [11],-1.4 °C
same,deltaT,Rattus norvegicus [12],-0.5 °C
same,deltaT,Rattus norvegicus [13],-1.4 °C
same,deltaT,Rattus norvegicus [14],-0.5 °C
same,deltaT,Rattus norvegicus [15],-1.4 °C
same,deltaT,Rattus norvegicus [16],-0.4 °C
same,deltaT,Rattus norvegicus [17],-1.5 °C
same,deltaT,Rattus norvegicus [18],-0.6 °C
same,Activity,Mus musculus [19],inactive
same,inhibition,Rattus norvegicus [20],Active
O=C1OC(c2ccccc2)C(=O)N1CCN1CCN(c2ccc(Cl)cc2)CC1 (centres undefined),Activity,Mus musculus [1],Non-toxic
same,Activity,Mus musculus [2],inactive
same,Activity,Mus musculus [3],inactive
same,Activity,Mus musculus [4],Non-toxic
O=C1OC(c2ccccc2)C(=O)N1CCNc1ccc(F)cc1 (centres undefined),Activity,Mus musculus [1],Non-toxic
same,Activity,Mus musculus [21],Active
same,Activity,Mus musculus [3],inactive
same,Activity,Mus musculus [22],Toxic
Cc1ccc(NCCN2C(=O)NC(c3ccccc3)(c3ccccc3)C2=O)cc1,Activity,Mus musculus [1],Non-toxic
same,Activity,Mus musculus [2],inactive
same,Activity,Mus musculus [3],inactive
same,Activity,Mus musculus [4],Non-toxic
O=C1NC(c2ccccc2)(c2ccccc2)C(=O)N1CCNc1ccc(O)cc1,Activity,Mus musculus [1],Non-toxic
same,Activity,Mus musculus [2],inactive
same,Activity,Mus musculus [3],inactive
same,Activity,Mus musculus [4],Non-toxic
O=C1NC(c2ccccc2)(c2ccccc2)C(=O)N1CCN1CCN(c2ccc([N+](=O)[O-])cc2)CC1,Activity,Mus musculus [1],Non-toxic
same,Activity,Mus musculus [21],Active
same,Activity,Mus musculus [3],inactive
same,Activity,Mus musculus [22],Toxic
O=C1OC(c2ccccc2)C(=O)N1CCN1CCN(c2ccccn2)CC1 (centres undefined),Activity,Mus musculus [1],Non-toxic
same,Activity,Mus musculus [2],inactive
same,Activity,Mus musculus [3],inactive
same,Activity,Mus musculus [4],Non-toxic
Cc1ccc(NCCN2C(=O)OC(c3ccccc3)C2=O)cc1 (centres undefined),Activity,Mus musculus [1],Non-toxic
same,Activity,Mus musculus [2],inactive
same,Activity,Mus musculus [3],inactive
same,Activity,Mus musculus [4],Non-toxic
O=C1NC(c2ccccc2)(c2ccccc2)C(=O)N1CCN1CCN(c2ccc(F)cc2)CC1,Activity,Mus musculus [1],Non-toxic
same,Activity,Mus musculus [23],Active
same,Activity,Mus musculus [3],inactive
same,Activity,Rattus norvegicus [7],Non-toxic
same,Activity,Rattus norvegicus [8],Non-toxic
same,Activity,Rattus norvegicus [9],Active
same,Activity,Rattus norvegicus [10],inactive
same,Activity,Mus musculus [4],Non-toxic
same,deltaT,Rattus norvegicus [11],-1.7 °C
same,deltaT,Rattus norvegicus [12],-0.8 °C
same,deltaT,Rattus norvegicus [13],-1.6 °C
same,deltaT,Rattus norvegicus [14],-0.7 °C
same,deltaT,Rattus norvegicus [15],-1.6 °C
same,deltaT,Rattus norvegicus [16],-0.7 °C
same,deltaT,Rattus norvegicus [17],-1.7 °C
same,deltaT,Rattus norvegicus [18],-0.9 °C
same,Activity,Mus musculus [19],inactive
same,Activity,Rattus norvegicus [24],Active
O=C1NC(c2ccccc2)(c2ccccc2)C(=O)N1CCN1CCN(c2ccc(O)cc2)CC1,Activity,Mus musculus [1],Non-toxic
same,Activity,Mus musculus [21],Active
same,Activity,Mus musculus [3],inactive
same,Activity,Mus musculus [22],Toxic
O=C1OC(c2ccccc2)C(=O)N1CCN1CCN(c2ccc(O)cc2)CC1 (centres undefined),Activity,Mus musculus [1],Non-toxic
same,Activity,Mus musculus [2],inactive
same,Activity,Mus musculus [3],inactive
same,Activity,Mus musculus [4],Non-toxic
O=C1OC(c2ccccc2)C(=O)N1CCN1CCN(c2ccc([N+](=O)[O-])cc2)CC1 (centres undefined),Activity,Mus musculus [1],Non-toxic
same,Activity,Mus musculus [21],Active
same,Activity,Mus musculus [3],inactive
same,Activity,Mus musculus [22],Toxic
Cc1ccc(N2CCN(CCN3C(=O)OC(c4ccccc4)C3=O)CC2)cc1 (centres undefined),Activity,Mus musculus [1],Non-toxic
same,Activity,Mus musculus [2],inactive
same,Activity,Mus musculus [3],inactive
same,Activity,Mus musculus [4],Non-toxic
O=C1NC(c2ccccc2)(c2ccccc2)C(=O)N1CCNc1ccc(F)cc1,Activity,Mus musculus [1],Non-toxic
same,Activity,Mus musculus [23],Active
same,Activity,Mus musculus [25],Active
same,Activity,Rattus norvegicus [7],Non-toxic
same,Activity,Rattus norvegicus [8],Non-toxic
same,Activity,Rattus norvegicus [9],Active
same,Activity,Rattus norvegicus [10],Active
same,Activity,Mus musculus [4],Non-toxic
same,deltaT,Rattus norvegicus [11],-1.5 °C
same,deltaT,Rattus norvegicus [12],-0.7 °C
same,deltaT,Rattus norvegicus [13],-2.9 °C
same,deltaT,Rattus norvegicus [14],-0.9 °C
same,deltaT,Rattus norvegicus [15],-2.7 °C
same,deltaT,Rattus norvegicus [16],-0.7 °C
same,deltaT,Rattus norvegicus [17],-2.5 °C
same,deltaT,Rattus norvegicus [18],-0.5 °C
same,Activity,Mus musculus [19],inactive
same,Activity,Rattus norvegicus [24],Active
